According to patent US10723699B2 (Hyundai Pharm Co., Ltd., priority 2015, dated 2020):
Read-outs that look alike come from different tables or passages of the source.

Biological target: T1, G protein-coupled receptor 119 (GPR-119) (Mesocricetus auratus, UniProt A0A1U8CD06)
T1 construct: hamster-derived β-cells containing G protein-coupled receptor 119 (GPR-119), HIT-T15 cells; host or cells: HIT-T15 (hamster pancreatic β-cells)
T1 sequence (A0A1U8CD06 1-334): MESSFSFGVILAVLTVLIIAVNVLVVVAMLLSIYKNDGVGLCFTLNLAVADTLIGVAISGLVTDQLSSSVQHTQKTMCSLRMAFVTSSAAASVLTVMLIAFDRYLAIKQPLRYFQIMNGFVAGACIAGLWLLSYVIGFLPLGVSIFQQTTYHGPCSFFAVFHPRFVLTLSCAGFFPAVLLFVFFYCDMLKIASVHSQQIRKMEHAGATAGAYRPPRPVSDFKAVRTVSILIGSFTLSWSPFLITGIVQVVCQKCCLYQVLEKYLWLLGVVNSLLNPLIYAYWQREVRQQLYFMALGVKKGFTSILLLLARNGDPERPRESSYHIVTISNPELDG
Assay: cAMP activity in HIT-T15 cells (cAMP dynamic kit, FRET)
Assay type: cell-based, hamster
Experimental: To check whether the cyclohexene derivatives according to the present invention activate cyclic adenosine monophosphate (cAMP), experiments were carried out, as follows.
The HIT-T15 cells were plated on a 96-well plate at 60,000 cells per well. On the next day of plating, the cells were treated with a varying concentration of each of the example compounds according to the present invention, and incubated at 37° C. for an hour. In this case, each of the treated compounds was used at six concentrations, ranging from 0.0032 to 10 μM, to treat the cells.
The cyclic adenosine monophosphate (cAMP) activity was measured according to the manufacturer's instruction using a cAMP dynamic kit commercially available from Cis Bio Inc. (Bedford, Mass.). The cells were lysed, and a level of cAMP was determined by a competitive immunoassay using D2-labeled cAMP and a cryptate-labeled anti-cAMP antibody. Fluorescence was read in Flex Station (Molecular Devices). […] Unlabeled cAMP in the cell lysate competed with the D2-labeled cAMP against the cryptate-labeled antibody. Since a decrease in the measured intensity of the FRET signals represents a level of cAMP in the cells, the cAMP activities of the compounds are calculated as a change in FRET signals by adjusting an amount of dimethyl sulfoxide (DMSO).

[1] = 1 hour at 37° C., six concentrations 0.0032 to 10 μM, read-out: EC50

EC50 [1] [nM]	EC50 (Table 2, read-out: EC50 value) [nM]	Compound
36	≤ 50	CCc1cnc(N2CCC(COc3ccc(C4=CCC(C(=O)N5CCC(F)(F)C5)CC4)cc3F)CC2)nc1 (stereo not shown) [Example 459, (3,3-difluoropyrrolidin-1-yl)(4-(4-((1-(5-ethylpyrimidin-2-yl)piperidin-4-yl)methoxy)-3-fluorophenyl)cyclohex-3-enyl)methanone]
180	–	CC(C)c1noc(N2CCC(COc3ccc(C4=CCC(C(=O)N5CCC(N6CCCC6)CC5)CC4)cc3F)CC2)n1 (stereo not shown) [Example 336, (4-(3-fluoro-4-((1-(3-isopropyl-1,2,4-oxadiazol-5-yl)piperidin-4-yl)methoxy)phenyl)cyclohex-3-enyl)(4-(pyrrolidin-1-yl)piperidin-1-yl)methanone]
52	–	CCc1cnc(N2CCC(COc3ccc(C4=CCC(C(=O)N5CCCCC5)CC4)cn3)CC2)nc1 (stereo not shown) [Example 350, (4-(6-((1-(5-ethylpyrimidin-2-yl)piperidin-4-yl)methoxy)pyridin-3-yl)cyclohex-3-enyl)(piperidin-1-yl)methanone]
33	≤ 50	CC(C)(C)OC(=O)N1CCC(COc2ccc(C3=CCC(C(=O)N4CCC(O)CC4)CC3)nc2)CC1 (stereo not shown) [Example 310, tert-butyl 4-((6-(4-(4-hydroxypiperidine-1-carbonyl)cyclohex-1-enyl)pyridin-3-yloxy)methyl)piperidine-1-carboxylate]
75	–	CCc1cnc(N2CCC(COc3ccc(C4=CCC(C(=O)N5CCCC5)CC4)cc3C)CC2)nc1 (stereo not shown) [Example 416, (4-(4-((1-(5-ethylpyrimidin-2-yl)piperidin-4-yl)methoxy)-3-methylphenyl)cyclohex-3-enyl)(pyrrolidin-1-yl)methanone]
–	≤ 50	CCc1cnc(N2CCC(COc3ccc(C4=CCC(C(=O)N5CCC(=NO)CC5)CC4)cc3)CC2)nc1 (stereo not shown) [Example 277, (4-(4-((1-(5-ethylpyrimidin-2-yl)piperidin-4-yl)methoxy)phenyl)cyclohex-3-enyl)(4-(hydroxyimino)piperidin-1-yl)methanone]
9	–	CC(C)c1noc(N2CCC(COc3ccc(C4=CCC(C(=O)N5CCN(C6CC6)CC5)CC4)cc3F)CC2)n1 (stereo not shown) [Example 369, (4-cyclopropylpiperazin-1-yl)(4-(3-fluoro-4-((1-(3-isopropyl-1,2,4-oxadiazol-5-yl)piperidin-4-yl)methoxy)phenyl)cyclohex-3-enyl)methanone]
91	–	CCc1cnc(N2CCC(COc3ccc(C4=CCC(C(=O)N5CCC(F)(F)C5)CC4)c(F)c3)CC2)nc1 (single isomer, unassigned; (-)) [Example 461, (−)-(3,3-difluoropyrrolidin-1-yl)(4-(4-((1-(5-ethylpyrimidin-2-yl)piperidin-4-yl)methoxy)-2-fluorophenyl)cyclohex-3-enyl)methanone]
37	≤ 50	CC(C)c1noc(N2CCC(COc3ccc(C4=CCC(C(=O)N5CCCCC5)CC4)cn3)CC2)n1 (stereo not shown) [Example 316, (4-(6-((1-(3-isopropyl-1,2,4-oxadiazol-5-yl)piperidin-4-yl)methoxy)pyridin-3-yl)cyclohex-3-enyl)(piperidin-1-yl)methanone]
48	≤ 50	CC(C)c1noc(N2CCC(COc3ccc(C4=CCC(C(=O)N5CCC(C(N)=O)CC5)CC4)cc3F)CC2)n1 (stereo not shown) [Example 361, 1-(4-(3-fluoro-4-((1-(3-isopropyl-1,2,4-oxadiazol-5-yl)piperidin-4-yl)methoxy)phenyl)cyclohex-3-enecarbonyl)piperidine-4-carboxamide]
14	–	CON=C1CCN(C(=O)C2CC=C(c3ccc(OCC4CCN(c5nc(C(C)C)no5)CC4)cc3)CC2)CC1 (stereo not shown) [Example 410, (4-(4-((1-(3-isopropyl-1,2,4-oxadiazol-5-yl)piperidin-4-yl)methoxy)phenyl)cyclohex-3-enyl)(4-(methoxyimino)piperidin-1-yl)methanone]
26	≤ 50	CC(C)OC(=O)N1CCC(COc2ccc(C3=CCC(C(=O)N4CCOCC4)CC3)cc2F)CC1 (stereo not shown) [Example 444, isopropyl 4-((2-fluoro-4-(4-(morpholine-4-carbonyl)cyclohex-1-enyl)phenoxy)methyl)piperidine-1-carboxylate]
150	–	O=C(NCCO)C1CC=C(c2ccc(OCC3CCN(c4ncc(Br)cn4)CC3)cc2)CC1 (stereo not shown) [Example 357, 4-(4-((1-(5-bromopyrimidin-2-yl)piperidin-4-yl)methoxy)phenyl)-N-(2-hydroxyethyl)cyclohex-3-enecarboxamide]
62	–	O=C(OC(CF)CF)N1CCC(COc2ccc(C3=CCC(C(=O)N4CCOCC4)CC3)cc2F)CC1 (stereo not shown) [Example 447, 1,3-difluoropropan-2-yl 4-((2-fluoro-4-(4-(morpholine-4-carbonyl)cyclohex-1-enyl)phenoxy)methyl)piperidine-1-carboxylate]
55	–	CCc1cnc(N2CCC(COc3ccc(C4=CCC(C(=O)N5CCCCC5)CC4)cc3C)CC2)nc1 (stereo not shown) [Example 415, (4-(4-((1-(5-ethylpyrimidin-2-yl)piperidin-4-yl)methoxy)-3-methylphenyl)cyclohex-3-enyl)(piperidin-1-yl)methanone]
9.8	≤ 50	CCC(F)(F)C(=O)N1CCC(COc2ccc(C3=CCC(C(=O)N4CCCC4)CC3)cc2F)CC1 (stereo not shown) [Example 436, 2,2-difluoro-1-(4-((2-fluoro-4-(4-(pyrrolidine-1-carbonyl)cyclohex-1-enyl)phenoxy)methyl)piperidin-1-yl)butan-1-one]
110	–	CCc1cnc(N2CCC(COc3ccc(C4=CCC(C(=O)N5CCCCC5)CC4)cc3C(F)(F)F)CC2)nc1 (stereo not shown) [Example 375, (4-(4-((1-(5-ethylpyrimidin-2-yl)piperidin-4-yl)methoxy)-3-(trifluoromethyl)phenyl)cyclohex-3-enyl)(piperidin-1-yl)methanone]
55	–	CC(C)c1noc(N2CCC(COc3ccc(C4=CCC(C(=O)N5CCN(CCCO)CC5)CC4)cc3F)CC2)n1 (stereo not shown) [Example 347, (4-(3-fluoro-4-((1-(3-isopropyl-1,2,4-oxadiazol-5-yl)piperidin-4-yl)methoxy)phenyl)cyclohex-3-enyl)(4-(3-hydroxypropyl)piperazin-1-yl)methanone]
28	≤ 50	CCc1cnc(N2CCC(COc3ccc(C4=CCC(C(=O)N(CCO)CCO)CC4)cc3F)CC2)nc1 (stereo not shown) [Example 323, 4-(4-((1-(5-ethylpyrimidin-2-yl)piperidin-4-yl)methoxy)-3-fluorophenyl)-N,N-bis(2-hydroxyethyl)cyclohex-3-enecarboxamide]
18	≤ 50	CCc1cnc(N2CCC(COc3ccc(C4=CCC(C(=O)N5CC(F)(F)C(F)(F)C5)CC4)c(F)c3)CC2)nc1 (stereo not shown) [Example 455, (4-(4-((1-(5-ethylpyrimidin-2-yl)piperidin-4-yl)methoxy)-2-fluorophenyl)cyclohex-3-enyl)(3,3,4,4-tetrafluoropyrrolidin-1-yl)methanone]
160	–	CC(C)c1noc(N2CCC(COc3ccc(C4=CCC(C(=O)N5CC(=NO)C5)CC4)cn3)CC2)n1 (stereo not shown) [Example 337, (3-(hydroxyimino)azetidin-1-yl)(4-(6-((1-(3-isopropyl-1,2,4-oxadiazol-5-yl)piperidin-4-yl)methoxy)pyridin-3-yl)cyclohex-3-enyl)methanone]
89	–	CC(C)=CC(=O)N1CCC(COc2ccc(C3=CCC(C(=O)N4CCOCC4)CC3)cc2F)CC1 (stereo not shown) [Example 451, 1-(4-((2-fluoro-4-(4-(morpholine-4-carbonyl)cyclohex-1-enyl)phenoxy)methyl)piperidin-1-yl)-3-methylbut-2-en-1-one]
35	≤ 50	CC(C)c1noc(N2CCC(COc3ccc(C4=CCC(C(=O)N5CCC5)CC4)cc3F)CC2)n1 (stereo not shown) [Example 330, azetidin-1-yl(4-(3-fluoro-4-((1-(3-isopropyl-1,2,4-oxadiazol-5-yl)piperidin-4-yl)methoxy)phenyl)cyclohex-3-enyl)methanone]
63	–	CCc1cnc(N2CCC(COc3ccc(C4=CCC(C(=O)N5CCSCC5)CC4)cn3)CC2)nc1 (stereo not shown) [Example 352, (4-(6-((1-(5-ethylpyrimidin-2-yl)piperidin-4-yl)methoxy)pyridin-3-yl)cyclohex-3-enyl)(thiomorpholino)methanone]
180	–	CC(C)c1noc(N2CCC(COc3ccc(C4=CCC(C(=O)N5CCC(N6CCCCC6)CC5)CC4)cc3F)CC2)n1 (stereo not shown) [Example 362, 1,4′-bipiperidin-1′-yl(4-(3-fluoro-4-((1-(3-isopropyl-1,2,4-oxadiazol-5-yl)piperidin-4-yl)methoxy)phenyl)cyclohex-3-enyl)methanone]
